The values below come from PubChem BioAssay (NCI).

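In this assay, cells in 96-well plates receive the compound at five concentrations for 48 hours. Endpoints are linearly interpolated between the surrounding concentrations. At the GI50, growth is halved. TGI: concentration producing complete growth inhibition.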 A value given as a limit tells only on which side of the number the result lay.

What all share (assay): NCI tumour cell line growth inhibition, 48 h
Assay [1] has as its system SNB-19 CNS.
The subject of assay [2] is M14 melanoma.
The test system of assay [3] is SW-620 colon.
Assay [4] has as its system KM12 colon.
The subject of assay [5] is NCI-H23 lung.
In assay [6] the test system is SNB-75 CNS.
For assay [7], the system named is OVCAR-4 ovarian.
Assay [8] concerns DU-145 prostate.
Assay [9] relates to TK-10 renal.
Assay [10] concerns K-562 leukemia.

As for `COC(=O)C(=O)C(C(=O)C(=O)Nc1ccc(Cl)cc1Cl)c1nc2ccc(Cl)cc2[nH]c1=O` (configuration not stated), the TGI in [1], in assay [2], in [3], in assay [4], in assay [5] and in assay [6] was > 100 µM each time. The TGI in assay [7], in assay [8] and in assay [9] was > 100 µM each time.

On to `COc1cc(C2CC(c3ccc(C)cc3)=NN2C(C)=O)ccc1Oc1ccnc2cc(Cl)ccc12` (configuration not stated), for which the GI50 is 37.4 µM in assay [1]; > 100 µM in [2]; > 100 µM in assay [3]; > 100 µM in [4]; > 100000 nM in assay [10]; 2.71 µM in assay [5]. The GI50 was 0.482 µM in assay [6] and > 100 µM in [8]. Besides, the TGI in [1], in [2], in assay [3], in assay [4], in assay [10] and in [5] was > 100 µM throughout. In addition, the TGI is 5.93 µM in [6] and > 100 µM in assay [8].

In the case of `COc1cc(OC)cc(-c2n[nH]nc2-c2ccc3c(c2)OCO3)c1`, the GI50 in assay [1] was 0.501 µM; in assay [2] it was 0.0948 µM; in assay [3], 0.105 µM; in assay [4] it was 0.07 µM; in assay [10] it was 49.6 nM; in [5], 0.768 µM. The GI50 is 0.763 µM in assay [7], 0.346 µM in assay [8] and 17.6 µM in assay [9]. Further, the TGI in [1] was > 100 µM; in assay [2], 12 µM; in assay [3], > 100 µM; in [4], 11.9 µM; in assay [10], > 100 µM; in [5] it was > 100 µM. Moreover, the TGI in assay [7], in assay [8] and in [9] was > 100 µM each time.

For `COc1ccc(OC)c(-c2cc(-c3ccc(Cl)cc3)nn2-c2ccc(S(N)(=O)=O)cc2)c1`, the GI50 was 7.73 µM in assay [2]; 4.29 µM in assay [3]; 5.16 µM in assay [4]; 2070 nM in assay [10]; 13.4 µM in assay [5]; 12.1 µM in assay [8]. For the same compound, the GI50 in [9] is 6.56 µM. Moreover, the TGI in assay [2] is 19.7 µM; in assay [3], > 100 µM; in assay [4], 21.2 µM; in assay [10], 4.87 µM; in [5], 28.3 µM; in assay [8], 25.9 µM. The compound also returned a TGI in assay [9] of 22.7 µM.

On to `COc1ccc(-n2cc(-c3ccc(Cl)cc3)[nH]c2=S)cc1Cl`, for which the GI50 in assay [1] is 20.1 µM; in assay [3] it was > 100 µM; in [4] it was > 100 µM; in [10], > 100000 nM; in assay [5] it was 84.4 µM; in assay [6], 21.6 µM. For the same compound, the GI50 in assay [7] was 20.7 µM; in assay [8], 37.2 µM; in [9], 47.3 µM. For the same compound, the TGI in assay [1] is 55 µM; in assay [3] it was > 100 µM; in assay [4], > 100 µM; in assay [10], > 100 µM; in assay [5], > 100 µM; in assay [6], 46.7 µM. Moreover, the figures for the TGI in [7], in assay [8] and in assay [9] were 48.6 µM, > 100 µM and > 100 µM, respectively.

Take `CCCCC#Cc1c(I)n(C2OC(CO[Si](C)(C)C(C)(C)C)C3OC(C)(C)OC32)c(=O)[nH]c1=O` (configuration not stated): the GI50 in assay [2] was 17.6 µM; in assay [3], 1.8 µM; in [4], 11.7 µM; in [10], 2020 nM; in assay [5], 13 µM; in assay [6], 12.1 µM. Also, the GI50 in assay [7] was 3.84 µM; in assay [8] it was 3.48 µM; in assay [9], 4.32 µM. Besides, the TGI in [2] came out at 34.8 µM; in assay [3], 4.15 µM; in [4] it was 24.5 µM; in assay [10], 5.02 µM; in assay [5] it was 31.3 µM; in assay [6] it was 24.9 µM. Also, the TGI in [7] is 16.1 µM; in [8], 12.9 µM; in assay [9] it was 16.8 µM.

For the compound `COC(=O)C1=C(O)C(C(=O)OC)[C@@]2(O)[C@@H](C(=O)OC)C(c3ccccc3C(F)(F)F)C[C@@H]1[C@@H]2C(=O)OC` (some centres not stated), the GI50 was 1.81 µM in assay [1]; 13.9 µM in assay [2]; 4.02 µM in [3]; 16.9 µM in assay [4]; 2150 nM in assay [10]; 3.44 µM in assay [5]. Also, the GI50 in [6] was 0.0935 µM; in assay [8], 3.23 µM; in assay [9], 12.1 µM. In addition, the TGI was found to be 13.6 µM in assay [1]; 47.4 µM in assay [2]; 20.1 µM in assay [3]; 32.8 µM in assay [4]; 9.52 µM in assay [10]; 11.6 µM in assay [5]. Also, the TGI in assay [6] was 1.53 µM; in [8], 10.9 µM; in [9], 25.5 µM.

On to `Cc1ccc(NC(=O)C(=O)C2C(=O)C3=C(CC2(C)C)NC2C=CC=CC2S3)c(C)c1` (configuration not stated), for which the TGI in assay [1], in assay [3], in assay [4], in assay [5], in assay [6] and in [7] was > 100 µM throughout. Also, the TGI in assay [8] and in [9] was > 100 µM in each case.

Take `O=C(CCCCCn1c2ccccc2c2c3c(c4c5ccccc5[nH]c4c21)C(=O)N(O)C3=O)N1CCOCC1`: the GI50 in assay [1] was 3.05 µM; in assay [2] it was 2.14 µM; in assay [3], 2.12 µM; in assay [4], 2.14 µM; in [10] it was 2110 nM; in assay [5], 2.11 µM. Besides, the GI50 in assay [7] is 3.57 µM; in assay [8] it was 3.12 µM; in assay [9] it was 2.03 µM. Besides, the TGI came out at 36.8 µM in assay [1]; 5.52 µM in assay [2]; 6.02 µM in [3]; 5.03 µM in assay [4]; 6.23 µM in assay [10]; 5.47 µM in [5]. Further, the TGI in assay [7] was > 100 µM; in assay [8], 12.2 µM; in [9], 5.72 µM.
